Values of other authors, collected in patent publication US11318122B2, “Pharmaceutical combination and its use for treating synucleinopathties” (CHASE THERAPEUTICS CORPORATION, priority 2017, dated 2022).

Key:
[1] = system: 6-OHDA (6-hydroxydopamine)-induced damage; conditions: toxin-induced model of PD
MPTP-induced damage = conditions: toxin-induced model of PD
[2] = system: extracellular concentrations of norepinephrine and dopamine; conditions: large doses, rodents, acute systemic administration
[3] = 5 mg/day of pramipexole
synuclein = synuclein (Homo sapiens, UniProt P37840)
[4] = target: human wild-type alpha-synuclein (Homo sapiens, UniProt P37840); conditions: by H2O2 plus cytochrome c
[5] = target: alpha-synuclein in human neuroblastoma SH5Y cells (Homo sapiens, UniProt P37840)
[6] = doses approved for the treatment of motor symptoms of PD; 535 PD patients

SMILES | protection against 6-OHDA-induced damage [1] | protection against MPTP-induced damage (MPTP-induced damage) | extracellular concentrations of norepinephrine and dopamine [2] | nausea [3] | vomiting [3] | patients not able to complete the study ([3]; presumably because of intolerable GI adverse events) | synuclein oligomer formation in vitro (synuclein) | toxic effects of rotenone on dopaminergic neurons (dopaminergic neurons; mouse PD model) | immunoreactivity for alpha-synuclein (dopaminergic neurons; rotenone mouse PD model) | in vitro oligomerization of human wild-type alpha-synuclein [4] | aggregation of alpha-synuclein [5] | neuroprotective (disease modifying) activity [6]
CNCCC(Oc1ccc(C(F)(F)F)cc1)c1ccccc1 (stereo not drawn) [fluoxetine, 1-methylamino-3-phenyl-3-[4-(trifluoromethyl)phenoxy]propane] | can protect | can protect | significant increase | – | – | – | – | – | – | – | – | –
CCCN[C@H]1CCc2nc(N)sc2C1 [pramipexole, (S)-6-propylamino-4,5,6,7-tetrahydro-1,3-benzothiazole-2-amine] | – | – | – | 76 % of patients | 39 % of patients | 36 % of patients | diminishes synuclein oligomer formation | inhibits the toxic effects of rotenone | reducing immunoreactivity | decreases the in vitro oligomerization | inhibit the aggregation | failed to evidence neuroprotective (i.e., disease modifying) activity
